Paper PMC6270246, “Anthraquinones of the Roots of Pentas micrantha” (Molecules, 2012)
Like-named read-outs stand apart in the source and are kept apart here.

What was measured:
[1] = test system: Indochina W2 chloroquine-resistant Plasmodium falciparum strain; test: Malaria SYBR Green I-based in vitro drug susceptibility assay, W2 strain; type: cell-based
Method: (§1) For cytotoxicity (CC50) assay 1-isopropyl-3-(pyridin-4-ylethynyl)-1H-pyrazolo[3,4-d]pyrimidin-4-amine was used as reference substance.
(§2) Sierra Leone D6 chloroquine-sensitive and the Indochina W2 chloroquine-resistant Plasmodium falciparum strains (donated by the Walter Reed Army Institute for Research [WRAIR], 503 Robert Grant Avenue, Silver Spring, MD 20910, USA) were maintained in continuous culture to attain replication robustness prior to assays. Drug susceptibility was tested by the Malaria SYBR Green I-based in vitro assay technique.

[2] = test system: Sierra Leone D6 chloroquine-sensitive Plasmodium falciparum strain; test: Malaria SYBR Green I-based in vitro drug susceptibility assay, D6 strain; type: cell-based
Method: as §1, §2

[3] = test system: MCF-7 human breast cancer cells; design: method as in PMID 21979929; conditions: MCF-7 cells; bioactivity previously published; read-out: CC50 (cytotoxic concentration); cited from earlier work
[4] = test system: Indochina W2 chloroquine-resistant Plasmodium falciparum strain; design: method as in PMID 21979929; conditions: P. falciparum W2 strain; in vitro; bioactivity previously published; cited from earlier work
[5] = test system: Sierra Leone D6 chloroquine-sensitive Plasmodium falciparum strain; design: method as in PMID 21979929; conditions: P. falciparum D6 strain; in vitro; bioactivity previously published; cited from earlier work
[6] = Cytotoxicity assay (PrestoBlue cell viability, 48 h); type: cell-based; conditions: human, MCF-7 breast cancer cells, MCF-7 cells, mean of at least six independent experiments, read-out: CC50 (cytotoxic concentration)
Method: MCF-7 human breast cancer cells were cultured in Dulbecco’s modified eagle medium (DMEM) supplemented with 10% (v/v) fetal bovine serum, 2 mM L-glutamine, 100 units/mL penicillin and 100 µg/mL streptomycin at 37 °C in humidified 5% CO2. For cytotoxicity assays, cells were seeded in 96-well plates at optimal cell density to ensure exponential growth for the duration of the assay. After a 24-h preincubation growth, the medium was replaced with experimental medium containing the appropriate drug concentrations or vehicle controls (0.1% or 1.0% v/v DMSO). After 48 h incubation, cell viability was measured using PrestoBlue™ Cell Viability Reagent (Invitrogen Ab, Lidingö, Sweden) according to the manufacturer’s instructions. […] Results were expressed as the mean ± standard error for six replicates as a percentage of vehicle control (taken as 100%). Experiments were performed independently at least six times. Statistical analyses were performed using a two-tailed Student’s t-test. p < 0.05 was considered to be statistically significant.

| SMILES | CC50 [3] [µM] | IC50 [4] [µM] | IC50 [5] [µM] | also measured |
| --- | --- | --- | --- | --- |
| OC(c1cc(C(F)(F)F)nc2c(C(F)(F)F)cccc12)C1CCCCN1 (centres unmarked) [mefloquine] | – | – | – | IC50 ([1]; P. falciparum W2 strain, positive controls, read-out: IC50 (W2)): 0.00665 µM; IC50 ([2]; P. falciparum D6 strain, positive controls, read-out: IC50 (D6)): 0.0876 µM |
| COc1c(CO)c(O)cc2c1C(=O)c1ccc(O)c(O)c1C2=O [Compound 8, 5,6-dihydroxydamnacanthol] | > 450 | 61.17 ± 0.02 | 47.53 ± 0.01 | – |
| COc1c(CO)c(O)cc2c1C(=O)c1ccccc1C2=O [Compound 3, damnacanthol] | 238 | 110.6 ± 0.01 | 56.6 | – |
| CC(C)n1nc(C#Cc2ccncc2)c2c(N)ncnc21 [1-isopropyl-3-(pyridin-4-ylethynyl)-1H-pyrazolo[3,4-d]pyrimidin-4-amine, reference compound] | – | – | – | CC50 at 48 h [6]: 5 µM |
| COc1c(C=O)c(O)cc2c1C(=O)c1ccccc1C2=O [Compound 7, damnacanthal] | 316 | 38.6 | 27.2 | – |
| Cc1ccc2c(c1)C(=O)c1ccccc1C2=O [Compound 1, tectoquinone] | > 100 | 48.56 ± 0.01 | 30.36 ± 0.01 | – |
| COCc1c(O)cc2c(c1O)C(=O)c1ccc(O)c(O)c1C2=O [Compound 6, 1,3,5,6-tetrahydroxy-2-(methoxymethyl)-9,10-anthraquinone] | – | – | – | IC50 ([1]; P. falciparum W2 strain, in vitro, mean of at least 3 independent experiments, read-out: IC50 W2): 35.41 ± 0.01 µM; CC50 at 48 h [6]: 258 µM; IC50 ([2]; P. falciparum D6 strain, in vitro, mean of at least 3 independent experiments, read-out: IC50 D6): 31.84 ± 0.01 µM |
| CCN(CC)CCCC(C)Nc1ccnc2cc(Cl)ccc12 (centres unmarked) [chloroquine] | – | – | – | IC50 ([1]; W2, read-out: IC50 (W2)): 0.522 µM; IC50 ([2]; D6, read-out: IC50 (D6)): 0.0147 µM |
| COCc1c(O)cc2c(c1O)C(=O)c1ccccc1C2=O [Compound 2, lucidin-ω-methyl ether] | > 352 | 46.44 ± 0.01 | 42.54 ± 0.01 | – |
| Cc1c(O)cc2c(c1O)C(=O)c1ccccc1C2=O [Compound 5, rubiadin] | 310 | 31.91 ± 0.01 | 21.5 | – |
| COc1c(C)c(O)cc2c1C(=O)c1ccccc1C2=O [Compound 4, rubiadin-1-methyl ether] | 208 | 70.6 | 45.07 ± 0.01 | – |
